Where two headings read alike, the source gives them in different places.
What was measured:
[1] = test system: oral ulcer after bone marrow transplantation; details: 28 leukemia cases with bone marrow transplantation; 150 mg LRM injected
Protocol: 28 cases of leukemia with bone marrow transplantation were recruited. 150 mg LRM was injected for prevention of catarrh.

[2] = for urinary riboflavin excretion: i.m., riboflavin-free diet
[3] = test system: blood glutathione reductase activity coefficient (BGRAC)
Male wistar Rats = details: medium and high LRM injected
Protocol: 60 Wistar rats weighing 64.5±4.6 g were used in the experiment. […] The rats were weighed every 6 days. […] The blood glutathione reductase activity coefficient (BGRAC) was measured.

[4] = not given; remark: listed apart in the source
[5] = test system: oral ulcer after chemotherapy
Protocol: 35 cases of acute lymphocytic leukemia and 13 cases of acute nonlymphocytic leukemia (6 M2 cases, 3 M3 cases, 2 M4 cases and 2 M5 cases) were also included.
Treatment: Regular chemotherapies, such as CODPL, HDMTX, DA were adopted. Other chemotherapies regimens were not listed. Tetrahydrofolate folic calcium was used to against the toxicity of HDMTX (hige-dose MTX). Hydration and alkalinizing of urine were performed in all patients by Dobll's solution. 5% NaHCO3 and 3% peroxide hydrogen were used to rinse the mouth alternatively.

[6] = day 15, medium dosage (5.01 g for 90 days per rat as printed; riboflavin group same dosage)
[7] = day 30, medium dosage (riboflavin group same dosage)
[8] = day 60, medium dosage (riboflavin group same dosage)
[9] = day 90, medium dosage (riboflavin group same dosage)

## CCCCCCCCCCCC(=O)OC[C@@H](O)[C@@H](O)[C@@H](O)Cn1c2nc(=O)[nH]c(=O)c-2nc2cc(C)c(C)cc21 [LRM, 5′-lauric acid monoester of riboflavin]
[1]
  cases that suffered oral ulcer: 4 cases
  share of cases that suffered oral ulcer: 14.3%
High dosage LRM group (FIG. 4)
  riboflavin content in plasma, course: first elevated and then declined
Riboflavin group, low and medium dosage LRM groups (FIG. 4)
  content of riboflavin in plasma, course: decline
[2]; after 15 days, riboflavin group, low and medium dosage LRM groups
  riboflavin discharged in urine compared with riboflavin deficiency group: higher than that in the riboflavin deficiency group
[2]; day 15, high dosage (double of medium)
  urinary riboflavin excretion: 217.9 ± 60.2 μg per rat per day
[2]; day 15, low dosage (half of medium)
  urinary riboflavin excretion: 5.6 ± 1.3 μg per rat per day
[2]; [6]
  urinary riboflavin excretion: 34.8 ± 12.2 μg per rat per day
[2]; day 30, high dosage (double of medium)
  urinary riboflavin excretion: 9.8 ± 3.5 μg per rat per day
[2]; day 30, low dosage (half of medium)
  urinary riboflavin excretion: 4.1 ± 0.8 μg per rat per day
[2]; [7]
  urinary riboflavin excretion: 5.0 ± 1.2 μg per rat per day
[2]; day 60, high dosage (double of medium)
  urinary riboflavin excretion: 9.9 ± 2.0 μg per rat per day
[2]; day 60, low dosage (half of medium)
  urinary riboflavin excretion: 5.4 ± 1.3 μg per rat per day
[2]; [8]
  urinary riboflavin excretion: 7.8 ± 1.3 μg per rat per day
[2]; day 90, high dosage (double of medium)
  urinary riboflavin excretion: 5.9 ± 1.2 μg per rat per day
[2]; day 90, low dosage (half of medium)
  urinary riboflavin excretion: 5.1 ± 0.9 μg per rat per day
[2]; [9]
  urinary riboflavin excretion: 4.6 ± 1.1 μg per rat per day
[2]; high dosage LRM group
  urinary riboflavin excretion, course over time: markedly increased at the 15th day and then rapidly decreased after the 30 days
[3]; low, medium and high dosage LRM groups (FIG. 3)
  BGRAC, course and order of groups: elevated, in the order as follows the low dosage LRM group>the medium dosage LRM group>the high dosage LRM group
Male wistar Rats
  release of free riboflavin in the body: could slowly release free riboflavin and meet the demand of the body
[4]; low dosage LRM group, after 30 days
  food-intake: decreased
[4]; medium and high dosage LRM groups
  weight gain: gained weight significantly
[4]; medium dosage LRM group, at the end of the experiment (FIG. 2)
  gain of body weight: lower than that of the high dosage LRM group
[4]; medium dosage LRM group, in the last few days
  food intake: decreased and was lower than that of the high dosage LRM group
[4]; the three LRM groups (FIG. 1)
  food intake: higher than the riboflavin group and the riboflavin deficiency group
[5]; ALL, LRM treated before chemotherapy (150 mg i.m.)
  Occurrence (%) of oral ulcer: 0%
[5]; ALL, LRM treated before chemotherapy (150 mg i.m.), 18 chemotherapies
  Ulcer observed (times): 0 times
[5]; ALL, LRM treated in recent 3 months
  Occurrence (%) of oral ulcer: 7.1%
[5]; ALL, LRM treated in recent 3 months, 42 chemotherapies
  Ulcer observed (times): 3 times
[5]; ANLL, LRM treated before chemotherapy (150 mg i.m.)
  Occurrence (%) of oral ulcer: 0%
[5]; ANLL, LRM treated before chemotherapy (150 mg i.m.), 8 chemotherapies
  Ulcer observed (times): 0 times
[5]; ANLL, LRM treated in 3 months
  Occurrence (%) of oral ulcer: 12.5%
[5]; ANLL, LRM treated in 3 months, 8 chemotherapies
  Ulcer observed (times): 1 times
[5]; LRM treatment prior to chemotherapy
  prevention of oral ulcer after chemotherapy: could effectively prevent the occurrence of oral ulcer after chemotherapy
[5]; within 3 months after chemotherapy
  incidence of oral ulcer: could effectively decrease the incidence of oral ulcer

## Cc1cc2nc3c(=O)[nH]c(=O)nc-3n(C[C@H](O)[C@H](O)[C@H](O)CO)c2cc1C [Riboflavin, riboflavin, reference compound]
[2]; [6]
  urinary riboflavin excretion: 4.0 ± 1.4 μg per rat per day
[2]; [7]
  urinary riboflavin excretion: 7.8 ± 1.6 μg per rat per day
[2]; [8]
  urinary riboflavin excretion: 4.5 ± 0.9 μg per rat per day
[2]; [9]
  urinary riboflavin excretion: 4.2 ± 0.9 μg per rat per day
[3]; riboflavin group, during the first 30 days (FIG. 3)
  BGRAC, course and comparison: gradually increased and significantly higher than that in the LRM groups and lower than that in the riboflavin deficiency group
[4]; riboflavin group (FIG. 1)
  food intake: did not drop until 25 days later and still more than that in the riboflavin deficiency group

Reference: US20060293335A1 (priority 2002, published 2006)
